Laboratory results taken from PMC9831672 (Journal of the American Chemical Society, 2022).

Target: NotF (Aspergillus sp. MF297-2, UniProt E0Y3X1)
Assay type: binding
Details: ternary complex with brevianamide F; non-hydrolysable DMAPP analogue

Sequence of NotF (E0Y3X1 whole entry): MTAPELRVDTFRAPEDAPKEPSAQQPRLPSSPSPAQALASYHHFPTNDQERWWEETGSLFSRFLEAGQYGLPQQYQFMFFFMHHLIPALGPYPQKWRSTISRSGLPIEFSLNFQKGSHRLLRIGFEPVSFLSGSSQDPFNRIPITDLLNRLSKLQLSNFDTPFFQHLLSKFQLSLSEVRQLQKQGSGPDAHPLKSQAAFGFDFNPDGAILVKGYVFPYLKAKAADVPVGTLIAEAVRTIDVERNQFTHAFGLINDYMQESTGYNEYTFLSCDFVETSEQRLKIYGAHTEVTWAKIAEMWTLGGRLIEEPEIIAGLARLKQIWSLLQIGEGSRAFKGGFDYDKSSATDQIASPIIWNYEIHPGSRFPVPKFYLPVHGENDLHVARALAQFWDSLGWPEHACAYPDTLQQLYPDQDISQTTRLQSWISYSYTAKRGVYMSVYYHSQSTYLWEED

## CC(C)=CCSP(=O)(O)OP(=O)(O)O [dimethylallyl S-thiolodiphosphate]
  X-ray crystal structure (3.0 A), co-crystallisation: a non-hydrolysable DMAPP analog, dimethylallyl S-thiolodiphosphate (DMSPP), was determined
